Source: patent publication US8877717B2, “Anti-diabetic extract of rooibos” (Zadec ApS, priority 2007, dated 2014)

Experiments:
diabetic rats = experiment: Flavonoids administered to diabetic rats (blood sugar); format: in vivo
[1] = Bioassay of purified fractions for anti-diabetic activity
From the text: The partially purified active extract may be dissolved in methanol, and may be further fractionated by column chromatography, employing silica gel as an adsorption medium and a chloroform/30% methanol mixture as an eluent. A plurality of different fractions may be obtained, and each may be evaluated, by suitable bioassaying procedures, to determine the anti-diabetic activity thereof.
A fraction having anti-diabetic activity may preferably be further fractionated such as by column chromatography using silica gel as an adsorption medium and a 9:1 chloroform:methanol solvent, and the resultant sub-fractions bioassayed for their anti-diabetic activity. A sub-fraction displaying anti-diabetic activity may, if desired, be further fractionated and purified, conveniently using a column chromatographic procedure with silica gel as the adsorption medium and a 9:1 ethylacetate:hexane solvent. The resultant purified fractions may again be evaluated by suitable bioassay procedures for their anti-diabetic activity.

SMILES: O=C(CCc1ccc(O)c(O)c1)c1c(O)cc(O)c([C@@H]2O[C@H](CO)[C@@H](O)[C@H](O)[C@H]2O)c1O [aspalathin, 3′-C-fl-D-glucopyranosyl-2′,3,4,4′,6′-pentahydroxydihydrochalcone]
- lowering the blood sugar and alleviating diabetic symptoms (diabetic rats; T1D and T2D rats): effective
- effect in diabetic rats compared with the extract (diabetic rats; flavonoids extracted and fractionated from Aspalathus): results similar to those produced by the extract
- anti-diabetic activity of purified fraction [1]: good anti-diabetic activity
